In patent publication EP4768489A1, “CYCLOBUTYL-CONTAINING COMPOUNDS” (Chia Tai Tianqing Pharmaceutical Group Co., Ltd., priority 2023, dated 2025):

What was measured:
[1] = test system: 22RV1 (H875Y/ARV7) cells; assay: Assay on inhibitory activity for 22RV1 (H875Y/ARV7) cell proliferation (CellTiter-Glo); type: cell-based; conditions: Homo sapiens, 168 h
Method: After 10 min of incubation at room temperature, the mixture was transferred to a white plate at 100 µL/well. […] Table 6. Inhibitory activity of compounds for 22RV1 (H875Y/ARV7) cell proliferation

[2] = in vivo; conditions: mouse
Method: ICR mice weighing 18-22 g were randomized into groups of 9 after 3-5 days of acclimatization. The mice in the intragastric administration group were intragastrically given the test compound solution at a dose of 10 mg/kg (20 mg/kg or 30 mg/kg), and the mice in the intravenous injection administration group were intravenously injected with the test compound solution at a dose of 1 mg/kg.
Blood was collected from the orbit to prepare plasma samples to be tested.
30 µL of each of the plasma samples to be tested and a standard curve sample were taken, and an acetonitrile solution containing an internal standard was added. Supernatants were obtained by protein precipitation, diluted with a 1:1 (v:v) mixed solution of acetonitrile and water, and then assayed by LC/MS/MS. Data were fitted using a non-compartmental model.

[3] = molecular target: T1, AR in LNCaP (T878A) cells (Homo sapiens, UniProt P10275, T878A); assay: Assay on degradation activity for AR in LNCaP (T878A) cells (HTRF); type: cell-based; conditions: maximum degradation rate, 24 h
T1 construct: Assay on degradation activity for AR in LNCaP (T878A) cells; endogenous in cells; host or cells: LNCaP cells
T1 sequence (P10275 1-920 T878A): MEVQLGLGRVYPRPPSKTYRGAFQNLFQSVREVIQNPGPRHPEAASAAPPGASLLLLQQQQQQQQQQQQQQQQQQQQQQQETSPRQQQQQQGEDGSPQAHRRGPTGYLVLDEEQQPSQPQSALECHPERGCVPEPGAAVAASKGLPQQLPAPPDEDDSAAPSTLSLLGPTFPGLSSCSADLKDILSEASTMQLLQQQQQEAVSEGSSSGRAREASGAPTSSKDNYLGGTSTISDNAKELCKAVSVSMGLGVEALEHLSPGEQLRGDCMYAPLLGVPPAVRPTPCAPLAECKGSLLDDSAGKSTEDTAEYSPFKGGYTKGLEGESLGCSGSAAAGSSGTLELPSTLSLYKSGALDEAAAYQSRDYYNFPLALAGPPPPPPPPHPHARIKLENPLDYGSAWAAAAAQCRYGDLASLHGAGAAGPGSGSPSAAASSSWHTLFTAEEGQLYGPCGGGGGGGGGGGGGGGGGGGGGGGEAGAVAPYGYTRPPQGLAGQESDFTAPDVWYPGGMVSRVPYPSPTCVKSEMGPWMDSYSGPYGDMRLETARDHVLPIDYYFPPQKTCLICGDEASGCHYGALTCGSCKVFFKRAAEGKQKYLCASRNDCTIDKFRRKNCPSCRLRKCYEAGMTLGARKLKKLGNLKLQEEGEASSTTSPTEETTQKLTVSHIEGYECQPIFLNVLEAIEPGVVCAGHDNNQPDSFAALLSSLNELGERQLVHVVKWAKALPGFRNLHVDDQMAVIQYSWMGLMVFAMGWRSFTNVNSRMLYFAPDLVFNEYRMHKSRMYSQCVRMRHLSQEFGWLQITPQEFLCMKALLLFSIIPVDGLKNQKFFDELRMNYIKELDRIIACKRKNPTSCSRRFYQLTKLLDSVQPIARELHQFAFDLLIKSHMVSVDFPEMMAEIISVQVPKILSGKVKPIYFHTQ
Method: The detection was carried out using the HTRF HUMAN ANDROGEN RECEPTOR DETECTION KIT (cisbio, 64ANDRPEG), 4× Supplemented Lysis buffer was prepared using the Blocking reagent stock solution (100×) and Lysis buffer stock solution (4×), and 1× Supplemented Lysis buffer was prepared using the 4× Supplemented Lysis buffer and ddH2O. Premixed antibody solutions were prepared using Detection buffer, Androgen Receptor Eu Cryptate antibody, and Androgen Receptor d2 antibody.
The cells were cultured overnight in a cell incubator. […] After the cells were oscillated for 40 min at room temperature, 16 µL of the cell lysis buffer was added to a 384-well plate, the Premixed antibody solutions were added at 4 µL/well, and the mixture was left to stand at 25 °C for 2 h. […] Table 2. Degradation activity of compounds for AR in LNCaP (T878A) cells

[4] = test system: LNCaP (T878A) cells; assay: cells; conditions: Homo sapiens, 168 h
Method: LNCaP cells in a good growth state were taken, washed with PBS, and digested with pancreatin, and a phenol red-free 1640 complete medium containing 2% CSS-FBS was added to terminate the digestion. The cells were collected into a centrifuge tube, adjusted to a cell density of 1 × 10^5 cells/mL, and seeded in a 96-well plate (100 µL/well). Meanwhile, compounds were added using a nanoliter pipettor and subjected to a 2-fold gradient dilution such that the final concentrations of the compounds were 1000 nM-0.061 nM and 5000 nM-0.305 nM. 2 duplicate wells were set, and meanwhile, a control was set. After the cells were cultured in the cell incubator for another 168 h, the detection reagent CCK-8 (manufacturer: Dojindo, 10 µL/well) was added. After 2.0 h of incubation in the cell incubator, absorbance values at 450 nm were measured using a PerkinElmer Envision microplate reader, the four-parameter analysis was performed, the dose-response curves were fit, and IC50 was calculated.

COc1cc(O[C@H]2C(C)(C)[C@H](NC(=O)c3ccc(N4CCC(CN5CCc6c(ccc7c(C8CCC(=O)NC8=O)noc67)C5)CC4)cc3)C2(C)C)ccc1C#N (some centres unmarked) [Compound 1]
IC50 [1]: < 0.5 µM
AUC at 48 h ([2]; iv, 1 mg/kg): 8380 ng·h/mL
Vd ([2]; iv, 1 mg/kg): 2.13 L/kg
clearance ([2]; iv, 1 mg/kg): 1.78 mL/min/kg
half-life ([2]; iv, 1 mg/kg): 13.9 h
AUC at 48 h ([2]; po, 10 mg/kg): 26800 ng·h/mL
Cmax ([2]; po, 10 mg/kg): 786 ng/mL
half-life ([2]; po, 10 mg/kg): 24.9 h
Dmax [3]: > 90%
IC50 [4]: < 0.05 µM

COc1cc(O[C@H]2C(C)(C)[C@H](NC(=O)c3ccc(N4CCC(CN5CCc6c(ccc7c(C8CCC(=O)NC8=O)noc67)C5)CC4)nc3)C2(C)C)ccc1C#N (some centres unmarked) [Compound 3]
IC50 [1]: < 0.5 µM
Dmax [3]: > 90%
IC50 [4]: < 0.05 µM

COc1cc(O[C@H]2C(C)(C)[C@H](NC(=O)c3cnc(N4CCC(CN5CCc6c(ccc7c(C8CCC(=O)NC8=O)noc67)C5)CC4)nc3)C2(C)C)ccc1C#N (some centres unmarked) [Compound 4]
IC50 [1]: < 0.5 µM
AUC at 48 h ([2]; iv, 1 mg/kg): 7730 ng·h/mL
Vd ([2]; iv, 1 mg/kg): 2.14 L/kg
clearance ([2]; iv, 1 mg/kg): 1.97 mL/min/kg
half-life ([2]; iv, 1 mg/kg): 10.5 h
AUC at 48 h ([2]; po, 10 mg/kg): 39000 ng·h/mL
Cmax ([2]; po, 10 mg/kg): 1360 ng/mL
half-life ([2]; po, 10 mg/kg): 11.7 h
Dmax [3]: > 90%
IC50 [4]: < 0.05 µM

COc1cc(O[C@H]2C(C)(C)[C@H](NC(=O)c3cnc(N4CCC(CN5CCc6c(ccc7c(C8CCC(=O)NC8=O)noc67)C5)CC4)cn3)C2(C)C)ccc1C#N (some centres unmarked) [Compound 5]
IC50 [1]: < 0.5 µM
AUC at 48 h ([2]; iv, 1 mg/kg): 4340 ng·h/mL
Vd ([2]; iv, 1 mg/kg): 3.79 L/kg
clearance ([2]; iv, 1 mg/kg): 3.5 mL/min/kg
half-life ([2]; iv, 1 mg/kg): 9.91 h
AUC at 48 h ([2]; po, 10 mg/kg): 22100 ng·h/mL
Cmax ([2]; po, 10 mg/kg): 1010 ng/mL
half-life ([2]; po, 10 mg/kg): 9.72 h
Dmax [3]: > 90%
IC50 [4]: < 0.05 µM

COc1cc(O[C@H]2C(C)(C)[C@H](NC(=O)c3ccc(N4CCC(CN5CCc6c(ccc7c(C8CCC(=O)NC8=O)noc67)C5)CC4)nn3)C2(C)C)ccc1C#N (some centres unmarked) [Compound 6]
Dmax [3]: > 90%
IC50 [4]: < 0.05 µM
